According to US20250154163A1, “Pyrimidinone-Containing 17-Beta-Hydroxysteroid Dehydrogenase Type 13 Inhibitors” (ENANTA PHARMACEUTICALS, INC., priority 2023, published 2025):

Biological target: T1, human HSD17β13 (stable HEK293T cell line overexpressing human HSD17β13) (Homo sapiens, UniProt Q7Z5P4)
T1 construct: expressed in transfected cells
T1 sequence (Q7Z5P4 20-300): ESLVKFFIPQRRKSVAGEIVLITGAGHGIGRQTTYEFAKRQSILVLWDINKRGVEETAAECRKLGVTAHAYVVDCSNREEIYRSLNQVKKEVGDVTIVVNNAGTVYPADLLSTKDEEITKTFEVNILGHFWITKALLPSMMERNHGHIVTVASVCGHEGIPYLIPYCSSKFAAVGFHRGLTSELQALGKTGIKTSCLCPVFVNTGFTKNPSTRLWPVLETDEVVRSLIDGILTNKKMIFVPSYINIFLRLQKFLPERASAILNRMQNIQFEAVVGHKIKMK
Assay: HSD17β13 inhibitor cell-based screening assay (conversion of estradiol-d2 to estrone-d2 by RF-MS)
Details: conversion of estradiol-d2 to estrone-d2 after 24 hours
Method in brief: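 Cellular IC50 is based on 24-h conversion of estradiol-d2 (5 μM final) to estrone-d2, measured by RF-MS in acetonitrile-precipitated supernatants. Assay uses human HSD17β13-overexpressing HEK293T cells (7.5E3/well, 1% charcoal/dextran FBS MEM), with compounds dosed as a 9-point 1:3 series to 10 μM final. ATPlite luminescence on overexpressing and parent lines measured viability.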

Compound	IC50
O=c1c2c(nc(-c3cnc(C(F)(F)F)cc3C3CC3)n1Cc1ccc(C(F)(F)F)nc1)sc1c(O)c(Cl)ccc12 [Example 179]	< 0.1 µM
O=c1c2c(nc(-c3ccc(C(F)F)cc3C3CC3)n1Cc1ccc(C(F)(F)F)nc1)sc1c(O)c(Cl)ccc12 [Example 180]	< 0.1 µM
Cn1ncc2cc(-c3nc4sc5c(O)c(Cl)ccc5c4c(=O)n3Cc3cnc(C(F)(F)F)nc3)c(C3CC3)cc21 [Example 182]	< 0.1 µM
CS(=O)(=O)Nc1ccc(-c2nc3sc4c(O)c(Cl)ccc4c3c(=O)n2Cc2cnc(C(F)(F)F)nc2)c(C2CC2)c1 [Example 185]	< 0.1 µM
Cn1cc(Cn2c(-c3ccc(C(F)F)cc3C3CC3)nc3sc4c(O)c(Cl)ccc4c3c2=O)ccc1=O [Example 186]	< 0.1 µM
Cn1cc(Cn2c(-c3cc(F)c(C(F)F)cc3C3CC3)nc3sc4c(O)c(Cl)ccc4c3c2=O)ccc1=O [Example 187]	< 0.1 µM
COc1ccc(-c2nc3sc4c(O)c(Cl)ccc4c3c(=O)n2CCc2cnco2)c(C2CC2)c1 [Example 188, 7-chloro-2-(2-cyclopropyl-4-methoxyphenyl)-8-hydroxy-3-(2-(oxazol-5-yl)ethyl)benzo[4,5]thieno[2,3-d]pyrimidin-4(3H)-one]	0.1 to 0.5 µM
COc1ccc(-c2nc3sc4c(O)c(Cl)ccc4c3c(=O)n2CCCc2cnco2)c(C2CC2)c1 [Example 189]	< 0.1 µM
COc1ccc(-c2nc3sc4c(O)c(Cl)ccc4c3c(=O)n2Cc2cnc(C)s2)c(C2CC2)c1 [Example 192]	< 0.1 µM
COc1ccc(-c2nc3sc4c(O)c(Cl)ccc4c3c(=O)n2Cc2cncn2C)c(C2CC2)c1 [Example 193]	< 0.1 µM
Cn1ncc2cc(C3CC3)c(-c3nc4sc5c(O)c(Cl)ccc5c4c(=O)n3Cc3cnco3)cc21 [Example 194]	0.5 to 1 µM
Cn1cc2cc(C3CC3)c(-c3nc4sc5c(O)c(Cl)ccc5c4c(=O)n3Cc3cnco3)cc2n1 [Example 195]	< 0.1 µM
COc1ccc(-c2nc3sc4c(O)c(Cl)ccc4c3c(=O)n2Cc2cnc(C(C)C)s2)c(C2CC2)c1 [Example 196]	< 0.1 µM
COc1ccc(-c2nc3sc4c(O)c(Cl)ccc4c3c(=O)n2Cc2cnc(C(F)F)s2)c(C2CC2)c1 [Example 197]	< 0.1 µM
COc1ccc(-c2nc3sc4c(O)c(Cl)ccc4c3c(=O)n2Cc2cnc(C(F)(F)F)s2)c(C2CC2)c1 [Example 198]	< 0.1 µM
COc1ccc(-c2nc3sc4c(O)c(Cl)ccc4c3c(=O)n2Cc2cc(C(F)F)no2)c(C2CC2)c1 [Example 199]	< 0.1 µM
COc1ccc(-c2nc3sc4c(O)c(Cl)ccc4c3c(=O)n2Cc2ncc(C)o2)c(C2CC2)c1 [Example 200, 7-chloro-2-(2-cyclopropyl-4-methoxyphenyl)-8-hydroxy-3-((5-methyloxazol-2-yl)methyl)benzo[4,5]thieno[2,3-d]pyrimidin-4(3H)-one]	< 0.1 µM
COc1ccc(-c2nc3sc4c(O)c(Cl)ccc4c3c(=O)n2Cc2cnn(C(F)(F)F)c2)c(C2CC2)c1 [Example 201]	< 0.1 µM
COc1ccc(-c2nc3sc4c(O)c(Cl)ccc4c3c(=O)n2Cc2nncs2)c(C2CC2)c1 [Example 202]	< 0.1 µM
COc1cc(C2CC2)c(-c2nc3sc4c(O)c(Cl)ccc4c3c(=O)n2Cc2cnco2)cn1 [Example 203]	0.1 to 0.5 µM
O=c1c2c(nc(-c3cnc(C(F)(F)F)cc3C3CC3)n1Cc1cnco1)sc1c(O)c(Cl)ccc12 [Example 204]	< 0.1 µM
C/C=C/c1cc2cn[nH]c2cc1-c1nc2sc3c(O)c(Cl)ccc3c2c(=O)n1Cc1cnco1 [Example 206]	0.1 to 0.5 µM
O=c1c2c(nc(-c3cc(F)c(F)cc3C3CC3)n1Cc1cnccn1)sc1c(O)c(Cl)ccc12 [Example 207]	< 0.1 µM
COc1ccc(-c2nc3sc4c(O)c(Cl)cc(C)c4c3c(=O)n2Cc2cnco2)c(C2CC2)c1 [Example 221]	0.1 to 0.5 µM
COc1ccc(-c2nc3sc4c(O)c(Cl)cc(Br)c4c3c(=O)n2Cc2cnco2)c(C2CC2)c1 [Example 222]	0.1 to 0.5 µM
COc1ccc(-c2nc3sc4c(O)c(F)cc(F)c4c3c(=O)n2Cc2cnco2)c(C2CC2)c1 [Example 223, 2-(2-cyclopropyl-4-methoxyphenyl)-5,7-difluoro-8-hydroxy-3-(oxazol-5-ylmethyl)benzo[4,5]thieno[2,3-d]pyrimidin-4(3H)-one]	< 0.1 µM

Next, values leading:

IC50	Compound
< 0.1 µM	O=c1c2c(nc(-c3cc(F)c(C(F)F)cc3C3CC3)n1Cc1ccc(C(F)(F)F)nc1)sc1c(O)c(Cl)ccc12 [Example 181]
< 0.1 µM	O=c1c2c(nc(-c3cc(F)c(F)cc3C3CC3)n1Cc1cnc(C(F)(F)F)nc1)sc1c(O)c(F)ccc12 [Example 183]
< 0.1 µM	O=c1c2c(nc(-c3cc(F)c(F)cc3C3CC3)n1Cc1cnc(C(F)(F)F)nc1)sc1c(O)ccc(F)c12 [Example 184]
< 0.1 µM	CCc1ncc(Cn2c(-c3cc(F)c(F)cc3C3CC3)nc3sc4c(O)c(Cl)ccc4c3c2=O)s1 [Example 205]
< 0.1 µM	COCc1cc(Cn2c(-c3cc(F)c(F)cc3C3CC3)nc3sc4c(O)c(Cl)ccc4c3c2=O)on1 [Example 208]
< 0.1 µM	O=c1c2c(nc(-c3cc(F)c(F)cc3C3CC3)n1Cc1nncs1)sc1c(O)c(Cl)ccc12 [Example 209]
< 0.1 µM	N#Cc1ncc(Cn2c(-c3cc(F)c(F)cc3C3CC3)nc3sc4c(O)c(Cl)ccc4c3c2=O)s1 [Example 210]
< 0.1 µM	O=c1c2c(nc(-c3cc(F)c(F)cc3C3CC3)n1Cc1cnn(C(F)(F)F)c1)sc1c(O)c(Cl)ccc12 [Example 211]
< 0.1 µM	O=c1c2c(nc(-c3cc(F)c(F)cc3C3CC3)n1Cc1ccns1)sc1c(O)c(Cl)ccc12 [Example 212]
1 to 100 µM	O=c1c2c(nc(-c3cc(F)c(F)cc3C3CC3)n1Cc1nn[nH]n1)sc1c(O)c(Cl)ccc12 [Example 213]
< 0.1 µM	O=c1c2c(nc(-c3cc(F)c(F)cc3C3CC3)n1Cc1cn[nH]n1)sc1c(O)c(Cl)ccc12 [Example 214]
< 0.1 µM	O=c1c2c(nc(-c3cc(F)c(F)cc3C3CC3)n1Cc1cn[nH]c1)sc1c(O)c(Cl)ccc12 [Example 215]
< 0.1 µM	Cn1cc(Cn2c(-c3cc(F)c(F)cc3C3CC3)nc3sc4c(O)c(Cl)ccc4c3c2=O)cn1 [Example 216]
< 0.1 µM	O=c1c2c(nc(-c3cc(F)c(F)cc3C3CC3)n1Cc1nnc(C(F)(F)F)s1)sc1c(O)c(Cl)ccc12 [Example 217]
< 0.1 µM	COc1ccc(-c2nc3sc4c(O)c(Cl)cc(F)c4c3c(=O)n2Cc2cnco2)c(C2CC2)c1 [Example 218, 7-chloro-2-(2-cyclopropyl-4-methoxyphenyl)-5-fluoro-8-hydroxy-3-(oxazol-5-ylmethyl)benzo[4,5]thieno[2,3-d]pyrimidin-4(3H)-one]
< 0.1 µM	O=c1c2c(nc(-c3cc(F)c(F)cc3C3CC3)n1Cc1cc(C(F)(F)F)no1)sc1c(O)c(Cl)cc(F)c12 [Example 219, 7-chloro-2-(2-cyclopropyl-4,5-difluorophenyl)-5-fluoro-8-hydroxy-3-((3-(trifluoromethyl)isoxazol-5-yl)methyl)benzo[4,5]thieno[2,3-d]pyrimidin-4(3H)-one]
